Article PMC10605010, “Immunotechniques for the Group Determination of Macrolide Antibiotics Traces in the Environment Using a Volume-Mediated Sensitivity Enhancement Strategy” (Biosensors, 2023)
Values after ≈ are worked out from the molar mass of the structure shown. Like-named read-outs stand apart in the source and are kept apart here.

How the values were obtained:
[1] = system: antibody to immunogen BSA-cmoERY(ma); set-up: method as in PMID 25308648; conditions: milk, cited from earlier work
[2] = system: coated anti-BSA-cmoCLA(ae) antibody; assay: Direct competitive antibody-coated ELISA (dcELISA) with HRP-aecAZI tracer; format: binding, rabbit; conditions: 1 h
Text: (§1) To implement these assay formats, the IgG fraction was first isolated from antiserum via the double precipitation method using caprylic acid and ammonium sulfate, described in detail in [22]. The principle of the assays is based on competition between analyte and enzyme-labeled antigen (HRP-aecAZI) for binding to an antibody coated on the plate (dcELISA) or coupled covalently to Sepharose beads. The latter immunosorbent was used in the immunobeads assay (IBA) and immunofiltration assay (IFA).
dcELISA plate format. The direct competitive antibody-coated ELISA format was carried out in accordance with the generally accepted procedure. The antibody coated on polystyrene plates could capture the free analyte from the tested sample and enzyme-labeled hapten in a competitive manner. The sequence of manipulations corresponded to those described for a similar format earlier. The role of the volume ratios between the standard (25–275 µL) and HRP-aecAZI (25–175 µL) on the sensitivity of the assay was studied in this work.
As a result of interactions between antibody and a number of coating antigens, we have identified a preferred hapten and a rational antigen design for the most sensitive and broad-specific detection. Since the aecAZI hapten conjugated to the carrier via a zero-length arm yielded the desired assay performance, we prepared the same design enzyme-labeled hapten for the direct competitive assay format. […] Thus, a direct competitive assay format was optimized and established based on coated anti-BSA-cmoCLA(ae) antibody and HRP-aecAZI × 3 as a tracer.

[3] = system: Anti-CLA(IgG) coupled to Sepharose beads; assay: Immunofiltration assay (IFA); format: binding, rabbit; conditions: overnight, Ab volume 50 µL, standard/sample 10,000 µL
Experimental: Sepharose 4B or Sepharose-CL-2B (Pharmacia, Uppsala, Sweden) were washed with water on a porous glass filter and then squeezed out with a soft press from excess moisture. The washed beads (2 g) were placed in a vial with sodium periodate solution (60 mg in 5 mL H2O) and mixed with a rotary mixer (ELMI Ltd. laboratory equipment, Riga, Latvia) for 45 min. An additional 30 min rotation continued after the addition of ethylene glycol (250 µL). The beads were then washed with water and finally with CBB (pH 9.6) squeezed mildly out. Each of the activated sorbents was placed in a vial for mixing with anti-cmoCLA IgG (10 mg) in 2 mL CBB (pH 9.6) for 48 h at 4 °C. The excess antibody was squeezed out. The beads were then washed with water and placed in a sodium borohydride solution (4 mg/4 mL) for 1 h with occasional shaking. After the final washing with water and PSBT, the resulting immune sorbents were stored at 4 °C in 10 mL of PSBT preserved with Merthiolate (1 mg).
as §1
Immunofiltration assay (IFA). The IFA principle consisted of passing a mixture of standard/sample (10 mL) and HRP-aecAZI through the beads with immobilized antibodies (Anti-CLA(IgG)-S4B or Anti-CLA(IgG)-SCL2B) placed in a homemade column and recording the enzymatic activity of the captured HRP-aecAZI. Briefly, the optimal volume of the prepared immunosorbent was placed on a pre-moistened filter support in a 10 μL filtered micropipette tip, which was then accurately attached to a syringe. This homemade column was filled with 10 mL of the standard analyte or water sample, avoiding the formation of bubbles. […]

[4] = system: antibody to immunogen BSA-cmoERY(ma); conditions: milk; ERY = 100; cited from earlier work
[5] = system: anti-BSA-cmoCLA(ae) antibodies; set-up: method as in PMID 25256165; conditions: coating antigen GEL-cmoCLA(ae), homologous; cited from earlier work
[6] = coating Ab 100 µL, standard/sample 25 µL
[7] = coating Ab 100 µL, standard/sample 50 µL
[8] = coating Ab 100 µL, standard/sample 100 µL
[9] = coating Ab 100 µL, standard/sample 200 µL
[10] = coating Ab 100 µL, standard/sample 275 µL
[11] = coating Ab 200 µL, standard/sample 275 µL
[12] = coating Ab 300 µL, standard/sample 275 µL

Q: What does the source list for `CC[C@H]1OC(=O)[C@H](C)[C@@H](O[C@H]2C[C@@](C)(OC)[C@@H](O)[C@H](C)O2)[C@H](C)[C@@H](O[C@@H]2O[C@H](C)C[C@H](N(C)C)[C@H]2O)[C@](C)(O)C[C@@H](C)C(=O)[C@H](C)[C@@H](O)[C@]1(C)O` [ERY, Erythromycin]?
A: CR ([1]; ERY = 100): 100%; IC50 [1]: 0.94 ng/mL (≈ 1.28 nM); LOD [1]: 0.3 ng/mL; IC10 (LOD) [2, 6]: 0.04 ng/mL (≈ 0.0545 nM); IC20-IC80 (working range) [2, 6]: 0.097 to 0.907 ng/mL; IC50 [2, 6]: 0.31 ng/mL (≈ 0.422 nM); IC10 (LOD) [2, 7]: 0.04 ng/mL (≈ 0.0545 nM); IC20-IC80 (working range) [2, 7]: 0.085 to 0.565 ng/mL; IC50 [2, 7]: 0.23 ng/mL (≈ 0.313 nM); IC10 (LOD) [2, 8]: 0.008 ng/mL (≈ 0.0109 nM); IC20-IC80 (working range) [2, 8]: 0.037 to 0.400 ng/mL; IC50 [2, 8]: 0.14 ng/mL (≈ 0.191 nM); IC10 (LOD) [2, 9]: 0.011 ng/mL (≈ 0.015 nM); IC20-IC80 (working range) [2, 9]: 0.029 to 0.253 ng/mL; IC50 [2, 9]: 0.098 ng/mL (≈ 0.134 nM); IC10 (LOD) [2, 10]: 0.024 ng/mL (≈ 0.0327 nM); IC20-IC80 (working range) [2, 10]: 0.043 to 0.184 ng/mL; IC50 [2, 10]: 0.091 ng/mL (≈ 0.124 nM); IC10 (LOD) [2, 11]: 0.002 ng/mL (≈ 0.00273 nM); IC20-IC80 (working range) [2, 11]: 0.008 to 0.119 ng/mL; IC50 [2, 11]: 0.034 ng/mL (≈ 0.0463 nM); IC10 (LOD) [2, 12]: 0.006 ng/mL (≈ 0.00818 nM); IC20-IC80 (working range) [2, 12]: 0.012 to 0.119 ng/mL; IC50 [2, 12]: 0.040 ng/mL (≈ 0.0545 nM); IC10 (LOD) [3]: 0.001 ng/mL (≈ 0.00136 nM); IC20-IC80 (working range) [3]: 0.002 to 0.019 ng/mL; IC50 [3]: 0.005 ng/mL (≈ 0.00681 nM); CR [4]: 100%; IC50 [5]: 0.20 ng/mL (≈ 0.273 nM)
